Data on 39 molecules can be found in patent US6534523B1, “Hepatitis C inhibitor tri-peptides” (Boehringer Ingelheim (Canada) Ltd., priority 1998, dated 2003).

The target of this assay is HCV NS3 protease (UniProt P26663). The format is biochemical, HCV genotype 1b. Set-up: rows headed: IC50 (μM); IC50 (μM). Here is the method:
Recombinant HCV NS3 Protease/NS4A Cofactor Peptide Radiometric Assay
The enzyme was cloned, expressed and prepared according to the protocol described in Example 36. The enzyme was stored at −80° C., thawed on ice and diluted just prior to use in the assay buffer containing the NS4A cofactor peptide.
The substrate used for the NS3 protease/NS4A cofactor peptide radiometric assay, DDIVPC-SMSYTW, is cleaved between the cysteine and the serine residues by the enzyme. The sequence DDIVPC-SMSYTW corresponds to the NS5A/NS5B natural cleavage site in which the cysteine residue in P2 has been substituted for a proline. […] (molar ratio enzyme:cofactor 1:100) in the absence or presence of inhibitors. The separation of substrate from products is performed by adding avidin-coated agarose beads to the assay mixture followed by filtration. The amount of SMS[^125I-Y]TW product found in the filtrate allows for the calculation of the percentage of substrate conversion and of the percentage of inhibition.
The enzymatic reaction was initiated by the addition of the enzyme/NS4A peptide solution and the assay mixture was incubated for 40 min at 23° C. under gentle agitation. Ten (10) μL of 0.5N NaOH were added and 10 μL 1 M MES, pH 5.8 were added to quench the enzymatic reaction.
A non-linear curve fit with the Hill model was applied to the inhibition-concentration data, and the 50% effective concentration (IC50) was calculated by the use of SAS software (Statistical Software System; SAS Institute, Inc. Cary, N.C.). […]
The NS2-NS5B-3′ non coding region was cloned by RT-PCR into the pCR®3 vector (Invitrogen) using RNA extracted from the serum of an HCV genotype 1b infected individual (provided by Dr. Bernard Willems, Hôpital St-Luc, Montréal, Québec, Canada). The NS3-NS4A DNA region was then subcloned by PCR into the pFastBac™ HTa baculovirus expression vector (Gibco/BRL). The vector sequence includes a region encoding a 28-residue N-terminal sequence which contains a hexahistidine tag. The Bac-to-Bac™ baculovirus expression system (Gibco/BRL) was used to produce the recombinant baculovirus. The full length mature NS3 and NS4A heterodimer protein (His-NS3-NS4AFL) was expressed by infecting 10^6 Sf21 cells/mL with the recombinant baculovirus at a multiplicity of infection of 0.1-0.2 at 27° C. The infected culture was harvested 48 to 64 h later by centrifugation at 4° C. The cell pellet was homogenized in 50 mM NaPO4, pH 7.5, 40% glycerol (w/v), 2 mM β-mercaptoethanol, in presence of a cocktail of protease inhibitors. His-NS3-NS4AFL was then extracted from the cell lysate with 1.5% NP-40, 0.5% Triton X-100, 0.5M NaCl, and a DNase treatment. After ultracentrifugation, the soluble extract was diluted 4-fold and bound on a Pharmacia Hi-Trap Ni-chelating column. […] The His-NS3-NS4AFL was stored at −80° C. in 50 mM sodium phosphate, pH 7.5, 10% (w/v) glycerol, 0.5 M NaCl, 0.25 M imidazole, 0.1% NP-40. It was thawed on ice and diluted just prior to use. The protease activity of His-NS3-NS4AFL was assayed in 50 mM Tris-HCl, pH 8.0, 0.25 M sodium citrate, 0.01% (w/v) n-dodecyl-β-D-maltoside, 1 mM TCEP. Five (5) μM of the internally quenched substrate anthranilyl-DDIVPAbu[C(O)—O]-AMY(3-NO2)TW-OH in presence of various concentrations of inhibitor were incubated with 1.5 nM of His-NS3-NS4AFL for 45 min at 23° C. […] The reaction was terminated with the addition of 1M MES, pH 5.8. Fluorescence of the N-terminal product was monitored on a Perkin-Elmer LS-50B fluorometer equipped with a 96-well plate reader (excitation wavelength: 325 nm; emission wavelength: 423 nm).
The following tables list compounds representative of the invention.

Like-named read-outs stand apart in the source and are kept apart here.

Chain of HCV NS3 protease (P26663 1027-1206, other chains not shown): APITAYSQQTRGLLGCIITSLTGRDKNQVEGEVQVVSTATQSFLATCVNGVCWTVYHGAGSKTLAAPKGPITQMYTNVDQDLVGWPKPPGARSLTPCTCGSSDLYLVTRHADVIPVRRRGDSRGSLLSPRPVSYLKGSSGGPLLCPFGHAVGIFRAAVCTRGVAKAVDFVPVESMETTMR

For `CCC1CC1(NC(=O)C1CC(OCc2cccc3ccccc23)CN1C(=O)C(NC(=O)OC(C)(C)C)C1CCCCC1)C(=O)O` (stereo not drawn) [compound 301], where the note is “Table 3”, the IC50 was 7700 nM.

Where the note is “Table 3”, `CC[C@H]1C[C@]1(NC(=O)[C@@H]1C[C@@H](OCc2cccc3ccccc23)CN1C(=O)[C@@H](NC(=O)OCC(C)C)C(C)C)C(=O)O` [compound 302] had a half-maximal inhibitory concentration (IC50) of 12500 nM. Still for that read-out and setting: the figure for `CC[C@H]1C[C@]1(NC(=O)[C@@H]1C[C@@H](OCc2cccc3ccccc23)CN1C(=O)[C@@H](NC(=O)OCC(C)C)C1CCCCC1)C(=O)O` [compound 303] is 11000 nM. As for `C=C[C@H]1C[C@]1(NC(=O)[C@@H]1C[C@@H](OCc2cccc3ccccc23)CN1C(=O)[C@@H](NC(=O)OC(C)(C)C)C1CCCCC1)C(=O)O` [compound 305], the IC50 (Table 3) was 3200 nM. The same measure, in the same setting: the figure for `C=C[C@H]1C[C@]1(NC(=O)[C@@H]1C[C@@H](Oc2ccnc3ccccc23)CN1C(=O)[C@@H](NC(=O)OC(C)(C)C)C1CCCCC1)C(=O)O` [compound 306] is 800 nM; for `C=C[C@H]1C[C@]1(NC(=O)[C@@H]1CC(Oc2cc(-c3ccccc3)nc3ccc([N+](=O)[O-])cc23)CN1C(=O)[C@@H](NC(=O)OC(C)(C)C)C1CCCCC1)C(=O)O` (stereo partly drawn) [compound 307] it is 270 nM; for `C=C[C@H]1C[C@]1(NC(=O)[C@@H]1C[C@@H](Oc2cccc3ccccc23)CN1C(=O)[C@@H](NC(=O)OC(C)(C)C)C1CCCCC1)C(=O)O` [compound 308] it is 1600 nM.

With `C=C[C@H]1C[C@]1(NC(=O)[C@@H]1C[C@@H](Oc2ccc3ccccc3c2)CN1C(=O)[C@@H](NC(=O)OC(C)(C)C)C1CCCCC1)C(=O)O` [compound 309], for the setting “Table 3”, the IC50 is 5000 nM. As to `COc1ccc2c(OC3C[C@@H](C(=O)NC4(C(=O)O)CCC4)N(C(=O)[C@@H](NC(=O)OC(C)(C)C)C(C)(C)C)C3)cc(-c3ccccc3)nc2c1` (stereo partly drawn) [compound 403], for the setting “Table 4”, inhibition was half-maximal at 132 nM (IC50). For the molecule `C=CC1C[C@]1(NC(=O)[C@@H]1C[C@@H](Oc2ccnc3ccccc23)CN1C(=O)[C@@H](NC(=O)OC(C)(C)C)C(C)(C)C)C(=O)O` (stereo partly drawn) [compound 501], the 50% inhibitory concentration (IC50) (Table 5) came to 400 nM. The molecule `C=CC1CC1(NC(=O)C1CC(Oc2ccnc3ccccc23)CN1C(=O)C(NC(=O)OC(C)(C)C)C(C)OC(C)(C)C)C(=O)O` (stereo not drawn) [compound 503] gave a concentration for half-maximal inhibition (IC50) (Table 5) of 790 nM. Same read-out and setting: the figure for `C=CC1CC1(NC(=O)C1CC(Oc2ccnc3ccccc23)CN1C(=O)C(NC(=O)OC(C)(C)C)C(C)OC)C(=O)O` (stereo not drawn) [compound 505] is 790 nM; for `C=CC1CC1(NC(=O)C1CC(Oc2ccnc3ccccc23)CN1C(=O)C(NC(=O)OC(C)(C)C)C(C)OCc1ccccc1)C(=O)O` (stereo not drawn) [compound 506] it is 1300 nM; for `C=CC1CC1(NC(=O)C1CC(Oc2ccnc3ccccc23)CN1C(=O)C(NC(=O)OC(C)(C)C)C(C)(C)SCNC(C)=O)C(=O)O` (stereo not drawn) [compound 507] it is 980 nM. On the same count and under the same terms, the figure for `C=CC1CC1(NC(=O)C1CC(Oc2ccnc3ccccc23)CN1C(=O)C(NC(=O)OC(C)(C)C)C(C)(C)SCc1ccc(C)cc1)C(=O)O` (stereo not drawn) [compound 508] is 3100 nM. The same measure, in the same setting: next, `C=CC1CC1(NC(=O)C1CC(Oc2ccnc3ccccc23)CN1C(=O)C(NC(=O)OC(C)(C)C)C(C)CC)C(=O)O` (stereo not drawn) [compound 509]: 377 nM; `C=CC1CC1(NC(=O)C1CC(Oc2ccnc3ccccc23)CN1C(=O)C(NC(=O)OC(C)(C)C)C(C)CC)C(=O)O` (stereo not drawn) [compound 510]: 255 nM. As to `C=CC1CC1(NC(=O)C1CC(Oc2ccnc3ccccc23)CN1C(=O)C(NC(=O)OC(C)(C)C)C(O)C1CCCCC1)C(=O)O` (stereo not drawn) [compound 511], under “Table 5”, the midpoint of inhibition, the IC50, lay at 2100 nM. For the molecule `C=CC1CC1(NC(=O)C1CC(Oc2cc(-c3ccccc3)nc3c(OC)c(OC)ccc23)CN1C(=O)C(NC(=O)OC(C)(C)C)C(C)(C)C)C(=O)O` (stereo not drawn) [compound 602], the 50% inhibitory concentration (IC50) (Table 6) came to 41 nM. Still for that read-out and setting: next, `C=CC1CC1(NC(=O)C1CC(Oc2cc(-c3ccccc3)nc3cc(CC)ccc23)CN1C(=O)C(NC(=O)OC(C)(C)C)C(C)C)C(=O)O` (stereo not drawn) [compound 603]: 195 nM; `C=CC1CC1(NC(=O)C1CC(Oc2ccnc3cc(OC)ccc23)CN1C(=O)C(NC(=O)OC(C)(C)C)C(C)(C)C)C(=O)O` (stereo not drawn) [compound 604]: 73 nM; `C=CC1CC1(NC(=O)C1CC(Oc2cc(-c3ccccc3)nc3cc(OC(C)C)ccc23)CN1C(=O)C(NC(=O)OC(C)(C)C)C(C)(C)C)C(=O)O` (stereo not drawn) [compound 605]: 195 nM. The same measure, in the same setting: the figure for `C=CC1CC1(NC(=O)C1CC(Oc2ccnc3cc(Cl)ccc23)CN1C(=O)C(NC(=O)OC(C)(C)C)C(C)(C)C)C(=O)O` (stereo not drawn) [compound 606] is 480 nM; for `C=CC1CC1(NC(=O)C1CC(Oc2ccnc3cc(Cl)ccc23)CN1C(=O)C(NC(=O)OC(C)(C)C)C(C)C)C(=O)O` (stereo not drawn) [compound 607] it is 450 nM. In turn, `C=CC1CC1(NC(=O)C1CC(Oc2ccnc3cc(Cl)ccc23)CN1C(=O)C(CC(C)C)NC(=O)OC(C)(C)C)C(=O)O` (stereo not drawn) [compound 608] showed an IC50 (Table 6) of 1450 nM.

The molecule `C=CC1CC1(NC(=O)C1CC(Oc2cc(CN3CCOCC3)nc3ccccc23)CN1C(=O)C(NC(=O)OC(C)(C)C)C(C)(C)C)C(=O)O` (stereo not drawn) [compound 609] returned an IC50 (Table 6) of 1700 nM. On the same count and under the same terms, next, `C=CC1CC1(NC(=O)C1CC(Oc2cc(Cl)nc3ccccc23)CN1C(=O)C(NC(=O)OC(C)(C)C)C(C)(C)C)C(=O)O` (stereo not drawn) [compound 610]: 250 nM; `C=CC1CC1(NC(=O)C1CC(Oc2cc(-c3ccccc3)nc3cc(N(C)C)ccc23)CN1C(=O)C(NC(=O)OC(C)(C)C)C(C)(C)C)C(=O)O` (stereo not drawn) [compound 611]: 35 nM. Still for that read-out and setting: the figure for `C=CC1CC1(NC(=O)C1CC(Oc2cc(N3CCOCC3)nc3ccccc23)CN1C(=O)C(NC(=O)OC(C)(C)C)C(C)(C)C)C(=O)O` (stereo not drawn) [compound 612] is 278 nM. The same measure, in the same setting: next, `C=CC1CC1(NC(=O)C1CC(Oc2cc(N3CCCC3)nc3ccccc23)CN1C(=O)C(NC(=O)OC(C)(C)C)C(C)(C)C)C(=O)O` (stereo not drawn) [compound 613]: 1000 nM; `C=CC1CC1(NC(=O)C1CC(Oc2cc(CN3CCCC3)nc3ccccc23)CN1C(=O)C(NC(=O)OC(C)(C)C)C(C)(C)C)C(=O)O` (stereo not drawn) [compound 614]: 2200 nM.

In turn, `C=CC1CC1(NC(=O)C1CC(Oc2ccnc3cc(N(C)C)ccc23)CN1C(=O)C(NC(=O)OC(C)(C)C)C(C)(C)C)C(=O)O` (stereo not drawn) [compound 615] came in with a half-inhibitory concentration (IC50) (Table 6) of 160 nM. Same read-out and setting: next, `C=CC1CC1(NC(=O)C1CC(Oc2cc(N3CCCCC3)nc3ccccc23)CN1C(=O)C(NC(=O)OC(C)(C)C)C(C)(C)C)C(=O)O` (stereo not drawn) [compound 617]: 345 nM. On the same count and under the same terms, the figure for `C=CC1CC1(NC(=O)C1CC(Oc2cc(CN(C)C)nc3ccccc23)CN1C(=O)C(NC(=O)OC(C)(C)C)C(C)(C)C)C(=O)O` (stereo not drawn) [compound 618] is 2300 nM; for `C=CC1CC1(NC(=O)C1CC(Oc2cc(-c3csc(C)n3)nc3ccccc23)CN1C(=O)C(NC(=O)OC(C)(C)C)C(C)(C)C)C(=O)O` (stereo not drawn) [compound 621] it is 58 nM; for `C=CC1CC1(NC(=O)C1CC(Oc2cc(OCC)nc3ccccc23)CN1C(=O)C(NC(=O)OC(C)(C)C)C(C)(C)C)C(=O)O` (stereo not drawn) [compound 622] it is 160 nM.

For `C=CC1CC1(NC(=O)C1CC(Oc2cc(OC)nc3ccccc23)CN1C(=O)C(NC(=O)OC(C)(C)C)C(C)(C)C)C(=O)O` (stereo not drawn) [compound 623], 200 nM corresponded to half-maximal inhibition (Table 6) (IC50). The same measure, in the same setting: the figure for `C=CC1CC1(NC(=O)C1CC(Oc2cc(N(C)C)nc3ccccc23)CN1C(=O)C(NC(=O)OC(C)(C)C)C(C)(C)C)C(=O)O` (stereo not drawn) [compound 624] is 1300 nM; for `C=CC1CC1(NC(=O)C1CC(Oc2cc(-c3ccccc3)nc3cc(SC)ccc23)CN1C(=O)C(NC(=O)OC(C)(C)C)C(C)(C)C)C(=O)O` (stereo not drawn) [compound 625] it is 160 nM.
